From a melting point compilation (Tetko et al.)

| SMILES | melting point [°C] |
| --- | --- |
| CC(C)(C)C1CCc2sc(-c3nnc(S)o3)cc2C1 (stereo not drawn) | 176 to 178 |
| CC1(C(=O)O)CCCN(C(=O)c2ccccc2)C1 (stereo not drawn) | 151 to 153 |
| COc1cccc(C(=O)O)n1 | 133 to 135 |
| Cc1ccc(-n2nnc(CC(=O)O)c2C)cc1 | 194 to 196 |
| O=C(O)c1cccc(S(=O)(=O)NC2CC2)c1 | 188 to 192 |
| CC1(c2cc(F)ccc2F)NC(=O)NC1=O (stereo not drawn) | 227 to 229 |
| O=C(O)[C@@H]1C[C@H]1c1cccnc1 (relative stereo) | 124 to 126 |
| O=C(c1ccc(Cl)cc1Cl)N1CCNCC1 | 108 to 110 |
| CC(=O)c1ccc(OCc2ccccc2C)cc1 | 98 to 100 |
| Nc1cccc(NC(=O)c2cccs2)c1 | 134 to 136 |
| COC(=O)C1CCN(c2nc3ccccc3s2)CC1 | 91 to 93 |
| CCN(CC)S(=O)(=O)c1ccc(-c2csc(N)n2)cc1 | 234 to 236 |
| NC(=O)CCc1ccc(F)c(F)c1 | 99 to 101 |
| O=Cc1cccc2c1OCO2 | 34 to 36 |
| COCc1ccc(C(=O)O)cc1 | 88 to 92 |
| CCOC(=O)Cn1nc(C)c(C=O)c1C | 79 to 81 |
| COc1cc(C=O)ccc1OCc1ccncc1 | 106 to 108 |
| CC1(C)NCCNC1=O | 113 to 115 |
| CCCOc1ccc(C=CC(=O)O)cc1OCC | 149 to 151 |
| O=C(O)C1(O)CCCC1 | 84 to 86 |
| CCOc1cc(C(=O)O)ccc1OC(F)F | 159 to 161 |
| N#Cc1c(Cl)nc(Cl)c(Cl)c1Cl | 148 to 150 |
| Nc1ccc2c(ccn2CCN2CCOCC2)c1 | 102 to 104 |
| COC(=O)c1cc2c(F)cc(F)cc2[nH]1 | 198 to 200 |

| SMILES | melting point [°C] |
| --- | --- |
| Cc1cc(C=O)c(C)n1Cc1ccco1 | 87 to 89 |
| O=Cc1ccc(OCc2cccnc2)cc1 | 75 to 77 |
| O=C(O)Cn1ccc(=O)c2ccccc21 | 274 to 276 |
| COc1cc(C(=O)O)cc(N)c1OC | 135 to 137 |
| O=C(O)COc1cc(Cl)ccc1Cl | 146 to 148 |
| NC(=O)NC(Cc1c[nH]c2ccccc12)C(=O)O (stereo not drawn) | 198 to 202 |
| Nc1nnc(-c2ccc3c(c2)OCO3)o1 | 271 to 273 |
| O=C(O)CNCC1CC1 | 222 to 224 |
| Cc1ccc(CC(=O)O)cc1O | 105 to 107 |
| O=C1CC(C(=O)O)c2ccc(F)cc2N1 (stereo not drawn) | 214 to 216 |
| O=Cc1c(Cl)cccc1N1CCOCC1 | 74 to 76 |
| O=C(O)COC(c1ccccc1)c1ccccc1 | 81 to 83 |
| O=C(O)c1cc(Cl)nc2ccccc12 | 187 to 189 |
| Cc1nn(C)c(Cl)c1Cn1cc(Br)cn1 | 52 to 54 |
| CNC(=O)CN1CCc2ccc(N)cc21 | 143 to 145 |
| Oc1ccccc1SC(F)(F)F | 32 to 34 |
| Nc1ccc(N2CCCC2)cc1C(=O)O | 148 to 150 |
| CCC1CCc2[nH]c3ccc(C)cc3c2C1 (stereo not drawn) | 59 to 61 |
| Cc1ccc(N2C(=O)Cc3ccccc3C2=O)cc1 | 173 to 175 |
| Cc1cc(=O)n2c(n1)NCC2 | 159 to 161 |
| O=C(O)c1cnc(COc2ccccc2)s1 | 174 to 176 |
| Cc1oncc1C(=O)NCC(=O)O | 144 to 146 |
| CCc1ccc(OCc2nnc(S)n2Cc2ccccc2)cc1 | 137 to 139 |
| Cc1nn(CCO)c(C(F)F)c1C(=O)O | 148 to 150 |

| SMILES | melting point [°C] |
| --- | --- |
| CC(Cl)C(=O)c1ccc(Cl)cc1 (stereo not drawn) | 58 to 60 |
| O=S(=O)(NC1CCNCC1)c1ccc(Cl)cc1 | 189 to 191 |
| Cc1nn(C)c(C)c1C(C)C(=O)O (stereo not drawn) | 119 to 121 |
| Cc1cc(Br)cc2c(O)c(C(=O)O)cnc12 | 299 to 301 |
| O=S(=O)(Cl)c1ccccc1-c1ccccc1 | 94 to 96 |
| COc1ccc(-c2cc(C(=O)O)[nH]n2)cc1OC | 225 to 227 |
| Clc1cc(OCc2ccccc2)ccn1 | 93 to 95 |
| OC(c1ccc(Br)cc1)C(F)(F)F (stereo not drawn) | 50 to 52 |
| C=CCN(CC(=O)O)S(=O)(=O)c1ccc(Cl)cc1 | 136 to 138 |
| Cc1ccc(-n2nnnc2S)cc1C | 110 to 112 |
| Nc1ccc(-c2ncno2)cc1 | 99 to 101 |
| CC1=CC=CC(=C2Nc3ccc(F)cc3N2C(C)C)C1=N | 160 to 162 |
| O=C(Nc1ccc(F)cc1)N1CCC(=NO)CC1 | 183 to 185 |
| CC(Cc1ccc(Cl)cc1)C(=O)O (stereo not drawn) | 49 to 51 |
| N#Cc1ccsc1C(=O)O | 191 to 193 |
| Cc1cc([N+](=O)[O-])cc(S(=O)(=O)Cl)c1C | 66 to 68 |
| CC(Cl)c1cccc([N+](=O)[O-])c1 (stereo not drawn) | 33 to 35 |
| O=C1CC(C2CC2)CN1 (stereo not drawn) | 99 to 101 |
| COc1cc(C(=O)N2CCCC(C(=O)O)C2)cc(OC)c1OC (stereo not drawn) | 189 to 191 |
| O=C(O)C=Cc1cc[nH]c1 | 183 to 185 |
| COc1cccc(NC(=S)NN)c1 | 168 to 170 |
| CC(C)N(CCC#N)S(C)(=O)=O | 107 to 109 |
| O=C(O)CNC(=O)c1ccc2[nH]nnc2c1 | 215 to 217 |
| COC(=O)C(=O)CC(=O)c1cccnc1 | 113 to 115 |

| SMILES | melting point [°C] |
| --- | --- |
| ClCc1nnc(-c2cccc(Cl)c2)o1 | 76 to 78 |
| N#Cc1cccc([N+](=O)[O-])c1O | 130 to 132 |
| O=C(O)c1ccc(Br)nn1 | 140 to 142 |
| Nc1ccnn1-c1ccc([N+](=O)[O-])cc1 | 138 to 140 |
| Cc1cc(C)cc(C2(C(=O)O)CC2)c1 | 164 to 166 |
| COc1cc(N2CC(C(=O)O)CC2=O)cc(OC)c1OC (stereo not drawn) | 143 to 145 |
| Cc1ccc(C(=O)C2CC2)cc1 | 47 to 49 |
| Cc1nnc2ccc(C(=O)O)cn12 | 307 to 309 |
| Cc1cc(N)n(C2CC3CCC2C3)n1 (stereo not drawn) | 59 to 61 |
| COC(=O)COc1ccc(N)c2ccccc12 | 83 to 85 |
| COCC(C)NC(=O)CC#N (stereo not drawn) | 40 to 44 |
| CCOC(=O)c1sc2nc(CCl)nc(Cl)c2c1C | 168 to 170 |
| OC(CNCc1ccccc1)c1ccco1 (stereo not drawn) | 68 to 70 |
| Cc1ccc(N2CCCNC(=O)C2)cc1 | 181 to 183 |
| CC(C)CCNC(=O)NC(=O)CCl | 93 to 95 |
| Cc1ccc(N2C(=O)CCC(C(=O)O)C2c2cccs2)cc1 (stereo not drawn) | 249 to 251 |
| N#Cc1c(F)cccc1S(=O)(=O)Cl | 63 to 65 |
| N#Cc1ccc2nc(Cl)ccc2c1 | 208 to 210 |
| Cc1ccc(S(=O)(=O)NC(C(=O)O)C(C)O)cc1 (stereo not drawn) | 177 to 179 |
| O=C(NC(c1nn[nH]n1)C1CC1)c1ccccc1 (stereo not drawn) | 189 to 191 |
| CN1C(=O)NC(=O)C12CCCCC2 | 172 to 174 |
| CCn1c(N)c(-c2csc(C)n2)c(=O)[nH]c1=O | 250 to 252 |
| Cc1ccc(C)c(C(=O)c2cccc(S(C)(=O)=O)c2)c1 | 89 to 91 |
| Cc1cc(C(=O)O)nn1-c1ccccc1 | 182 to 184 |

| SMILES | melting point [°C] |
| --- | --- |
| NNc1ccc(S(=O)(=O)N2CCOCC2)cn1 | 179 to 181 |
| Nc1ccc2nc(-c3ccccn3)oc2c1 | 178 to 180 |
| O=Cc1c(-c2ccccc2)nc2ccccn12 | 144 to 146 |
| O=C(O)c1ccc(-c2cccc(Cl)c2)s1 | 222 to 224 |
| Cc1ccc(CN)c(S(C)(=O)=O)c1 | 32 to 34 |
| Clc1nnc(-c2cccc3ncccc23)s1 | 143 to 145 |
| CC(C)Nc1ccc(S(C)(=O)=O)cc1 | 111 to 113 |
| Cc1sc(C(=O)O)cc1S(=O)(=O)Cl | 148 to 150 |
| Cc1cccc(NC2CCNCC2)n1 | 85 to 87 |
| NC(=O)c1cn(CC(=O)O)c2ccccc12 | 239 to 241 |
| COC(=O)C(=O)CC(=O)c1ccc2c(c1)OCO2 | 98 to 105 |
| CC(C(=O)O)c1ccc(Br)s1 (stereo not drawn) | 55 to 57 |
| Nc1ccc(-c2nc3ccc(N)cc3[nH]2)cc1 | 234 to 236 |
| CS(=O)(=O)c1ccccc1NN | 75 to 77 |
| Cc1ccn(-c2cc(CO)ccn2)n1 | 92 to 94 |
| COC(=O)c1ccc(COc2ccc(C=O)cc2OC)cc1 | 129 to 131 |
| O=C(O)CCCc1ccccc1Br | 87 to 89 |
| CCOC(=O)c1c(C)oc2ccc(O)cc12 | 136 to 138 |
| FC(F)(F)c1ccccc1Nc1nnc(S)s1 | 197 to 199 |
| COc1cc(C)c(C(C)=O)cc1OC | 73 to 75 |
| CCOC(=O)c1sc2[nH]cnc(=O)c2c1C | 233 to 235 |
| NCC(O)c1ccc(Cl)cc1 (stereo not drawn) | 97 to 99 |
| Clc1ccc(-c2ccccc2)nn1 | 157 to 159 |
| O=C(O)c1cnoc1-c1ccc(Cl)s1 | 191 to 193 |

| SMILES | melting point [°C] |
| --- | --- |
| Cc1nn(-c2ccc(C(=O)O)cc2)c(C)c1Br | 229 to 231 |
| N#Cc1ccc(C(=O)CC(=O)C(F)(F)F)cc1 | 128 to 130 |
| Fc1ccc(CBr)c(Br)c1 | 51 to 53 |
| Cc1cccc(C(=O)NC(C)C(=O)O)c1 (stereo not drawn) | 117 to 119 |
| Cc1nn(C)c(C)c1NC(=O)CCl | 107 to 109 |
| O=C(NC1CC1)c1cc(S)nc2ccccc12 | 301 to 303 |
| Nc1cc(F)c(Oc2ccc(F)cc2)cc1C(=O)O | 194 to 196 |
| O=C1CC(=O)Nc2cc(S(=O)(=O)Cl)ccc2N1 | 253 to 255 |
| CCNc1nc(C)c(C(=O)OCC)s1 | 102 to 104 |
| O=Cc1cn2cccnc2n1 | 189 to 191 |
| ClCc1cn2cccnc2n1 | 125 to 127 |
| Cc1ccc(S(=O)(=O)N2CCC(C(=O)O)CC2)cc1 | 181 to 183 |
| O/N=C1\CCN2CCCCC12 (stereo not drawn) | 96 to 98 |
| CS(=O)(=O)c1cc([N+](=O)[O-])c(O)c([N+](=O)[O-])c1 | 221 to 223 |
| Nc1cc(Br)ccc1-n1cncn1 | 114 to 116 |
| Cn1c(Cl)nnc1-c1ccc(Cl)cc1 | 179 to 181 |
| NNC(=O)CNc1ccc(F)cc1 | 80 to 83 |
| COc1cccc(CNc2ccc(F)cc2)c1O | 76 to 78 |
| O=C(O)C1CCN(S(=O)(=O)c2ccccc2C(F)(F)F)CC1 | 127 to 129 |
| O=C(O)CCC1NC(=O)NC1=O (stereo not drawn) | 169 to 171 |
| O=c1[nH]c(-c2ccccn2)nc2c1CCC2 | 178 to 180 |
| Cc1ccc(-n2c(C)c(Br)c3c2CCCC3=O)cc1 | 139 to 141 |
| C#CCNC(=O)CBr | 73 to 75 |
